Data taken from paper PMC7883042 (Peptide Science (Hoboken, N.j.), 2021).

Biological target: SARS‐CoV‐2 RBD/ACE2 PPI in A549 cells overexpressing ACE2 (Severe acute respiratory syndrome coronavirus 2, UniProt P0DTC2)

Ac-IEEQAKTFLDKFNHER8EDLFYQS5-NH2 (sidechain bridge or staple) [Peptide 8]
entry of His‐tagged SARS‐CoV RBD into cells (immunofluorescence): show entry
